Values joined by “and” are separate entries in the source; they are usually repeats but may differ in a detail not shown here. Equal values may be shown once. Positions of bridges follow the written chain, without caps; N, C: chain ends. Residues, ends and D or L forms follow the SMILES beside them.
Target: NaV1.3 (Homo sapiens, UniProt Q9NY46)
Experiment: Voltage dependence of steady-state inactivation and activation, NaV1.3
Format: cell-based
Protocol: The voltage dependence of steady-state activation was assessed by recording sodium currents evoked by depolarizing voltage steps ranging from −110 mV to +80 mV in 5 mV increments. Peak conductance (GNa) was derived using the equation G = I/(V − Vrev), where I denotes the measured current, V the applied membrane potential, and Vrev the sodium reversal potential. To evaluate the voltage dependence of steady-state fast inactivation, a two-pulse protocol was used. Cells were conditioned with 500 ms pre-pulses at potentials between −130 mV and −10 mV (10 mV increments), followed by a 20 ms test depolarization to 0 mV to elicit sodium currents. The steady-state fast inactivation currents were plotted as I/Imax, where I = current value and Imax = highest current value within the experiment. The voltage-dependence of steady-state activation and inactivation were determined either in the absence of peptide or following 5 min exposure to peptide at the respective IC50 concentration at the NaV subtype analyzed to streamline the investigation using an effective single concentration as previously described by us.
For calcium influx experiments, bioactivity comparisons between venom fractions and controls were based on the difference between the maximal and minimal fluorescence intensity values obtained from single-replicate assays. Electrophysiological data analysis was conducted using GraphPad Prism (version 8; GraphPad Software, San Diego, CA, USA). Nonlinear regression was applied to fit the concentration–response relationships using a variable Hill slope: log(inhibitor) versus normalized response for determining IC50 values, and log(agonist) versus normalized response for EC50 calculations. Reversibility and dissociation kinetics were analyzed by fitting data with a single-phase exponential decay model, while voltage-dependence of steady-state activation and inactivation parameters were derived from Boltzmann sigmoid fits of normalized conductance (G/Gmax) or current (I/Imax) values to determine the half-activation or half-inactivation voltages (V50). Data are expressed as mean ± SEM, where n represents the number of individual cells analyzed.

Sequence of NaV1.3 (Q9NY46 whole entry): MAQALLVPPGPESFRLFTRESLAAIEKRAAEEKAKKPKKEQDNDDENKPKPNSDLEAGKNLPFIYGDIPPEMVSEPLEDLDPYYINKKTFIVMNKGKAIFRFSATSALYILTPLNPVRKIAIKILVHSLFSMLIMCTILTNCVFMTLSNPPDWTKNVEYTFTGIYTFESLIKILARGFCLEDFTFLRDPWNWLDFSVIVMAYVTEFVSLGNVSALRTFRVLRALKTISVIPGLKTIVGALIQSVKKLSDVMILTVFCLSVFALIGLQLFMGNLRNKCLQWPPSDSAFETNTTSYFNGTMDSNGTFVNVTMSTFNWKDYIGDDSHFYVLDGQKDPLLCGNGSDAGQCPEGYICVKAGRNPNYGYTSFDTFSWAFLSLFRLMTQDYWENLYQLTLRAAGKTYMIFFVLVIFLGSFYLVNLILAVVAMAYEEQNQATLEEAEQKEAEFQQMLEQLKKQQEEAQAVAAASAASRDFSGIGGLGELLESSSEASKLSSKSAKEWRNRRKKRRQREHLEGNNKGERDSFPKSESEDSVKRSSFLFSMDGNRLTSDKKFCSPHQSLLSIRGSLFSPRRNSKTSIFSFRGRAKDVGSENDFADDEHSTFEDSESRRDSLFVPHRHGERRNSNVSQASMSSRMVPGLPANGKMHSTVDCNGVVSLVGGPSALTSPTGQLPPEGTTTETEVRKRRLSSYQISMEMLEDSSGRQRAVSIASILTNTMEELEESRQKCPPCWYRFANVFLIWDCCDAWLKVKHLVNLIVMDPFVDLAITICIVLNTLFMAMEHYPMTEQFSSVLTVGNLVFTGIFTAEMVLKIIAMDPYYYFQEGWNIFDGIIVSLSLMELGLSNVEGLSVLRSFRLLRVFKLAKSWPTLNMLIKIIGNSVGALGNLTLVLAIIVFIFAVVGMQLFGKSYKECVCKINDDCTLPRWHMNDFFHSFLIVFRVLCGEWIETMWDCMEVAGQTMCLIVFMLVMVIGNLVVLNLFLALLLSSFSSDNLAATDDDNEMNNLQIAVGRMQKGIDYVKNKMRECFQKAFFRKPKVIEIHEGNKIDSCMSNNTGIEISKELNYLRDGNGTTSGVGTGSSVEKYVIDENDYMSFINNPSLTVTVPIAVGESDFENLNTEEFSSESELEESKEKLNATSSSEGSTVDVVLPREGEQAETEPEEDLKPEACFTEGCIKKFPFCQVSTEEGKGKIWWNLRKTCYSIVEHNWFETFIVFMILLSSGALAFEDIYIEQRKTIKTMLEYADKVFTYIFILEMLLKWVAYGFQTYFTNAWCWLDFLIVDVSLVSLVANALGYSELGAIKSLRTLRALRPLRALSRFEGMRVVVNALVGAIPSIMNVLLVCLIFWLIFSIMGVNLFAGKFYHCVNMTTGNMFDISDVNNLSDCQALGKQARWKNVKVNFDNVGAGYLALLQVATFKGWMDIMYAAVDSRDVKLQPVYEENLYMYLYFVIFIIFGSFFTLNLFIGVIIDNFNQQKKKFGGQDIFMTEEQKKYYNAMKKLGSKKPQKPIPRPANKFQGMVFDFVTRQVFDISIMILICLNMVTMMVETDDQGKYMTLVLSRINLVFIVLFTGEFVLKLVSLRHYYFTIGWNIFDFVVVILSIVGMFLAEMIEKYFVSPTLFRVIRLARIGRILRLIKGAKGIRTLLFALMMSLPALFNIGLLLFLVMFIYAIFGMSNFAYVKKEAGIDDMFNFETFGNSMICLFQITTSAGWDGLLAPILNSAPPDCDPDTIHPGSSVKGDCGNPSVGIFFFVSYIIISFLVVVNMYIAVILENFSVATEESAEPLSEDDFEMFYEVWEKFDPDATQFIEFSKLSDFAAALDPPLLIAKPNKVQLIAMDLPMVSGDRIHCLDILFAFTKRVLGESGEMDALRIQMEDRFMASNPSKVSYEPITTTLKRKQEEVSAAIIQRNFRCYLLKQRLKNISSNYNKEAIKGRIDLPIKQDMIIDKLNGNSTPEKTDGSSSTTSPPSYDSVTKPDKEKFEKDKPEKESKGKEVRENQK
Sequence of NaV1.3 (Q07699 19-218, further chain): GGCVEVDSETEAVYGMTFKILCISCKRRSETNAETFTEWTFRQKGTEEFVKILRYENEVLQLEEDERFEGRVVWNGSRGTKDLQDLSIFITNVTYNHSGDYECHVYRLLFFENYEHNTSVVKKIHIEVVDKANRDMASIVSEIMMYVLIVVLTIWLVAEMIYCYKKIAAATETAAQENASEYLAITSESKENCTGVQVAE

Q: Which “V50 of steady-state activation in presence of peptide, NaV1.3” value (control V50 = −21 ± 0.4 mV, steps −110 to +80 mV in 5 mV increments, mean ± SEM, 3 to 5 repeats) does the source give for `CC(C)C[C@@H]1NC(=O)[C@H](Cc2ccccc2)NC(=O)[C@H](Cc2ccc(O)cc2)NC(=O)[C@H](CCCNC(=N)N)NC(=O)[C@@H](NC(=O)[C@@H](N)CCC(=O)O)CSSC[C@@H]2NC(=O)[C@@H]3CSSC[C@@H](C(=O)N[C@H](C(=O)N[C@@H](Cc4c[nH]c5ccccc45)C(=O)N[C@@H](CC(=O)O)C(=O)N[C@@H](Cc4c[nH]c5ccccc45)C(=O)N[C@H](C(=O)N[C@@H](Cc4ccccc4)C(N)=O)[C@@H](C)O)C(C)C)NC(=O)[C@H](Cc4c[nH]c5ccccc45)NC(=O)[C@H](CCC(N)=O)NC(=O)[C@H](Cc4c[nH]cn4)NC(=O)[C@H](CCCCN)NC(=O)[C@H](CC(N)=O)NC(=O)[C@H](Cc4c[nH]cn4)NC(=O)[C@H](CSSC[C@H](NC(=O)CNC(=O)CNC1=O)C(=O)N[C@@H](CO)C(=O)N[C@@H](CCC(N)=O)C(=O)NCC(=O)N[C@@H](CCC(=O)O)C(=O)N[C@@H](CCCCN)C(=O)N3)NC(=O)[C@H](C(C)C)NC(=O)[C@H](CC(C)C)NC(=O)[C@H](Cc1c[nH]cn1)NC(=O)[C@H](CCC(=O)O)NC2=O` [sOa1a-NH2] (H-ECRYFLGGCSQGEKCCEHLVCHNKHQWCVWDWTF-NH2; disulfide 2-16, 9-21, 15-28; N-terminus assumed) here?
A: −26 mV

Q: What about the “V50 of steady-state inactivation in presence of peptide, NaV1.3” value (control V50 = −71 ± 0.71 mV, 5 min exposure at IC50 concentration, 23 nM, 500 ms pre-pulses −130 to −10 mV, mean ± SEM, 3 to 5 repeats) of the same compound?
A: -57 ± 1.4 mV and −57 mV

Q: And the “ΔV50 of steady-state inactivation, NaV1.3” value (peptide vs control, shift to more depolarized potentials, 3 to 5 repeats)?
A: 14 mV

Q: What about the “Shift in voltage of activation, NaV1.3” value (presence of 23 nM sOa1a-NH2) of the same compound?
A: ≤ 5 mV

Source: publication PMC12656268, “Venom Peptides Across Asian and American Tarantulas Utilize Dual Pharmacology to Target Activation and Fast Inactivation of Voltage-Gated Sodium Channels” (Toxins, 2025)
